According to ChEMBL document CHEMBL5649169 (ChemMedChem, 2018):

Assays:
[1] = target: Hexokinase-1 (Homo sapiens) (UniProt P19367)
[2] = target: ATP synthase F(1) complex subunit beta, mitochondrial (Homo sapiens) (UniProt P06576)
[3] = target: Stalled ribosome sensor GCN1 (Homo sapiens) (UniProt Q92616)
[4] = target: Large ribosomal subunit protein eL27 (Homo sapiens) (UniProt P61353)
[5] = target: Small ribosomal subunit protein mS27 (Homo sapiens) (UniProt Q92552)
[6] = target: Apoptosis-inducing factor 1, mitochondrial (Homo sapiens) (UniProt O95831)
[7] = target: Calcium-binding protein 39 (Homo sapiens) (UniProt Q9Y376)
[8] = target: Nucleolysin TIAR (Homo sapiens) (UniProt Q01085)
[9] = target: Wee1-like protein kinase (Homo sapiens) (UniProt P30291)
[10] = target: Histone deacetylase 1 (Homo sapiens) (UniProt Q13547)
[11] = target: Unhealthy ribosome biogenesis protein 2 homolog (Homo sapiens) (UniProt Q14146)
[12] = target: Septin-7 (Homo sapiens) (UniProt Q16181)
[13] = target: Aromatic-L-amino-acid decarboxylase (Homo sapiens) (UniProt P20711)
[14] = target: RNA-binding protein FXR1 (Homo sapiens) (UniProt P51114)
[15] = target: WD repeat-containing protein 1 (Homo sapiens) (UniProt O75083)
[16] = target: Ribosome-binding protein 1 (Homo sapiens) (UniProt Q9P2E9)
[17] = target: ATP synthase F(0) complex subunit g, mitochondrial (Homo sapiens) (UniProt O75964)
[18] = target: Dual specificity protein kinase CLK1 (Homo sapiens) (UniProt P49759)
[19] = target: Ubiquitin carboxyl-terminal hydrolase 7 (Homo sapiens) (UniProt Q93009)
[20] = target: Kinectin (Homo sapiens) (UniProt Q86UP2)
[21] = target: Mitogen-activated protein kinase kinase kinase 4 (Homo sapiens) (UniProt Q9Y6R4)
[22] = species: Homo sapiens
[23] = target: Histone H1.0 (Homo sapiens) (UniProt P07305)
[24] = target: Growth hormone-inducible transmembrane protein (Homo sapiens) (UniProt Q9H3K2)
[25] = target: Heterogeneous nuclear ribonucleoprotein Q (Homo sapiens) (UniProt O60506)
[26] = target: Eukaryotic translation initiation factor 3 subunit H (Homo sapiens) (UniProt O15372)
[27] = target: X-ray repair cross-complementing protein 6 (Homo sapiens) (UniProt P12956)
[28] = target: Sodium/potassium-transporting ATPase subunit alpha-1 (Homo sapiens) (UniProt P05023)
[29] = target: MMS19 nucleotide excision repair protein homolog (Homo sapiens) (UniProt Q96T76)
[30] = target: ATPase family AAA domain-containing protein 3B (Homo sapiens) (UniProt Q5T9A4)
[31] = target: Mitogen-activated protein kinase 15 (Homo sapiens) (UniProt Q8TD08)
[32] = target: Alpha-internexin (Homo sapiens) (UniProt Q16352)
[33] = target: Fatty acyl-CoA reductase 1 (Homo sapiens) (UniProt Q8WVX9)
[34] = target: Lamin-B2 (Homo sapiens) (UniProt Q03252)
[35] = target: DNA topoisomerase 2-beta (Homo sapiens) (UniProt Q02880)
[36] = target: Proteasome subunit alpha type-6 (Homo sapiens) (UniProt P60900)
[37] = target: Ethanolaminephosphotransferase 1 (Homo sapiens) (UniProt Q9C0D9)
[38] = target: Lon protease homolog, mitochondrial (Homo sapiens) (UniProt P36776)
[39] = target: Cyclin-dependent kinase 13 (Homo sapiens) (UniProt Q14004)
[40] = species: Homo sapiens; remark: listed apart in the source
[41] = target: Centromere/kinetochore protein zw10 homolog (Homo sapiens) (UniProt O43264)
[42] = target: Ras association domain-containing protein 2 (Homo sapiens) (UniProt P50749)
[43] = target: Propionyl-CoA carboxylase alpha chain, mitochondrial (Homo sapiens) (UniProt P05165)
[44] = species: Homo sapiens; remark: listed apart in the source
[45] = target: Stathmin-2 (Homo sapiens) (UniProt Q93045)
[46] = target: Synaptosomal-associated protein 23 (Homo sapiens) (UniProt O00161)
[47] = target: Eukaryotic translation initiation factor 3 subunit I (Homo sapiens) (UniProt Q13347)
[48] = target: Succinate dehydrogenase [ubiquinone] flavoprotein subunit, mitochondrial (Homo sapiens) (UniProt P31040)
Further: assay method not described here.

Eukaryotic translation initiation factor 3 subunit H (Homo sapiens), sequence (O15372 whole entry): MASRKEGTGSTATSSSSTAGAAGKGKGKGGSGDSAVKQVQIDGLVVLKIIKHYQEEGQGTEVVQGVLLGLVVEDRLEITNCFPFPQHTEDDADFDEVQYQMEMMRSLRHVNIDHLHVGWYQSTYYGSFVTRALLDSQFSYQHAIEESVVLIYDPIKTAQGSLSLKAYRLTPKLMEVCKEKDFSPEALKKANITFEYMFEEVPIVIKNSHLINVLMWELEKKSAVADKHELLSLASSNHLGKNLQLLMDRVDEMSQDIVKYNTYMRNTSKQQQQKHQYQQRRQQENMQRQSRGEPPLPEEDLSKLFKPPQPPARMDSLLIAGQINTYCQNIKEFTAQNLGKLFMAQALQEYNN
Aromatic-L-amino-acid decarboxylase (Homo sapiens), sequence (P20711 whole entry): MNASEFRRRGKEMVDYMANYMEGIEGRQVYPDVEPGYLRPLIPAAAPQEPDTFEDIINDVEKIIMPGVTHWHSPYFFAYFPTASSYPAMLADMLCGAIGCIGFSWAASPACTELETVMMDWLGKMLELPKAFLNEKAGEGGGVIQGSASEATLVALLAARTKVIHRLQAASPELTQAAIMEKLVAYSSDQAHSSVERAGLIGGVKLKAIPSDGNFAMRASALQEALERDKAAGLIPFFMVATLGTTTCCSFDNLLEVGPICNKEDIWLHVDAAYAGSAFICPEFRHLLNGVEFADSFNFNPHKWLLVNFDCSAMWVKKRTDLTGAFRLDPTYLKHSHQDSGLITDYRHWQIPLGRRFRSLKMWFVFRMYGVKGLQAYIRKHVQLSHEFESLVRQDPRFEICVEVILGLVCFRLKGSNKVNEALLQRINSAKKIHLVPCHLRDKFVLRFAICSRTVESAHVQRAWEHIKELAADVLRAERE
Stathmin-2 (Homo sapiens), sequence (Q93045 whole entry): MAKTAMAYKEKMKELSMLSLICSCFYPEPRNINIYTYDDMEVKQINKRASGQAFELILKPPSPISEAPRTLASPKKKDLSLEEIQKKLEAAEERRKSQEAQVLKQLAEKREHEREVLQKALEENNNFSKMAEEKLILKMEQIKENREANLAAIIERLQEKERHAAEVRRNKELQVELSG
Wee1-like protein kinase (Homo sapiens), sequence (P30291 whole entry, looked up): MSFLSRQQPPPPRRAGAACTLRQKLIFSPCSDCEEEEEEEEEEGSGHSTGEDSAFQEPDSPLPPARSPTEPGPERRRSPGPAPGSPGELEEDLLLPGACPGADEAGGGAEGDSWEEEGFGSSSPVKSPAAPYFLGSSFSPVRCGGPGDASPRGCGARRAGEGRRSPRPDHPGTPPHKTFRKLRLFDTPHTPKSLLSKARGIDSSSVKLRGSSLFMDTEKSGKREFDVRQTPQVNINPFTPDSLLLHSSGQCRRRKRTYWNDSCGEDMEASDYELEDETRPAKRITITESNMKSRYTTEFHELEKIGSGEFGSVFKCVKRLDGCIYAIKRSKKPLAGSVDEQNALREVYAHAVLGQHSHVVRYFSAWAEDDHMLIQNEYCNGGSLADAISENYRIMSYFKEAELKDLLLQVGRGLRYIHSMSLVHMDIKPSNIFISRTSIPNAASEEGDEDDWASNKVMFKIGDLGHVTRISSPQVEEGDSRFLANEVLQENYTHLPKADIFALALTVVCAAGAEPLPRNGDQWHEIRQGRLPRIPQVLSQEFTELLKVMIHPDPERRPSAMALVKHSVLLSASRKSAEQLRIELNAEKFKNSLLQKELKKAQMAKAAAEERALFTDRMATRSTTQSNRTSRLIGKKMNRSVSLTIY
Unhealthy ribosome biogenesis protein 2 homolog (Homo sapiens), sequence (Q14146 whole entry): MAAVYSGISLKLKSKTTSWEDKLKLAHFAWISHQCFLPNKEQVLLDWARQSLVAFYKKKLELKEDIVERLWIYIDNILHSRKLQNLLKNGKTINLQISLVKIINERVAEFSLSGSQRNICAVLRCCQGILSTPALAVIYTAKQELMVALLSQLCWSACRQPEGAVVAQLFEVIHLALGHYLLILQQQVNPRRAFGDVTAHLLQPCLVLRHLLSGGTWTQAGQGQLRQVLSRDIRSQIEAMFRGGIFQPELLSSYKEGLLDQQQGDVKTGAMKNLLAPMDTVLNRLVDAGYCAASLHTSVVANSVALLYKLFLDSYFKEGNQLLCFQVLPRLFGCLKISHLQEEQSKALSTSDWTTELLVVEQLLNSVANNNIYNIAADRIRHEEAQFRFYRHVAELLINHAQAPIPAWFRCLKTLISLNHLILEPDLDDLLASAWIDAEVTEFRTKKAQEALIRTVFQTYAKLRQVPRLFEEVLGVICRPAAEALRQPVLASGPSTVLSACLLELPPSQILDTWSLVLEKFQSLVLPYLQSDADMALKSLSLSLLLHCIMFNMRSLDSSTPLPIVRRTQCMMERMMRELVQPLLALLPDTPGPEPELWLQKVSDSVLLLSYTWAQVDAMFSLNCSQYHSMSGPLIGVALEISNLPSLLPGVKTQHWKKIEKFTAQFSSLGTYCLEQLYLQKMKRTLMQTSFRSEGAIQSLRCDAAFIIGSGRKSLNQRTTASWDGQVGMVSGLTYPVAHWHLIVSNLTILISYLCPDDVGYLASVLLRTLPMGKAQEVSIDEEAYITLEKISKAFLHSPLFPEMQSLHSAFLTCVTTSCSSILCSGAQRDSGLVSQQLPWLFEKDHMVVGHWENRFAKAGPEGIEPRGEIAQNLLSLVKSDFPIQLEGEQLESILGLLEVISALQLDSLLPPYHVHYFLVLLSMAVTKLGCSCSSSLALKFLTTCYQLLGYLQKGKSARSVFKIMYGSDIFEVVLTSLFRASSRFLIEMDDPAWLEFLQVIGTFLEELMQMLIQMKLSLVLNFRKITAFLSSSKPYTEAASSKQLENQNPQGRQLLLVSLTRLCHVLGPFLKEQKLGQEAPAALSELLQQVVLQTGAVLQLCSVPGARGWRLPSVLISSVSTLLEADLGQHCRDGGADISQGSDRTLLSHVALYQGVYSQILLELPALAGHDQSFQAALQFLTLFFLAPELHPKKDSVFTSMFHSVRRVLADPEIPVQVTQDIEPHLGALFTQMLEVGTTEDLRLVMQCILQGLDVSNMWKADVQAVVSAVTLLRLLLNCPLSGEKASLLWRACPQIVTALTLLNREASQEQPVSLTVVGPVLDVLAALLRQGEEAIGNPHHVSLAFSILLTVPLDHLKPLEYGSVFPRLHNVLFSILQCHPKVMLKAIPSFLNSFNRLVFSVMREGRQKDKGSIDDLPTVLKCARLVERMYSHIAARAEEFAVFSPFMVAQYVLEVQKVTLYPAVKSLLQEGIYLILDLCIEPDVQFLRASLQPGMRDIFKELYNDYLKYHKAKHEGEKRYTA
Nucleolysin TIAR (Homo sapiens), sequence (Q01085 whole entry): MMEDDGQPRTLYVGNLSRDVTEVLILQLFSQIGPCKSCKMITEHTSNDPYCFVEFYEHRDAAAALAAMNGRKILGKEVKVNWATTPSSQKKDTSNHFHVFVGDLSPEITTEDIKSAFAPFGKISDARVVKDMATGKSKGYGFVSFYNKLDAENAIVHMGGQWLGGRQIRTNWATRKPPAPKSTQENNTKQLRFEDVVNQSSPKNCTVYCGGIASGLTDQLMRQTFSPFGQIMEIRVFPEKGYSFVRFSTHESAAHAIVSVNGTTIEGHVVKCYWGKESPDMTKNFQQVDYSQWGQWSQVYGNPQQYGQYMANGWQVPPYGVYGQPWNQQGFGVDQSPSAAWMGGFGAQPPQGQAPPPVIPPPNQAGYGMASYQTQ
WD repeat-containing protein 1 (Homo sapiens), sequence (O75083 whole entry): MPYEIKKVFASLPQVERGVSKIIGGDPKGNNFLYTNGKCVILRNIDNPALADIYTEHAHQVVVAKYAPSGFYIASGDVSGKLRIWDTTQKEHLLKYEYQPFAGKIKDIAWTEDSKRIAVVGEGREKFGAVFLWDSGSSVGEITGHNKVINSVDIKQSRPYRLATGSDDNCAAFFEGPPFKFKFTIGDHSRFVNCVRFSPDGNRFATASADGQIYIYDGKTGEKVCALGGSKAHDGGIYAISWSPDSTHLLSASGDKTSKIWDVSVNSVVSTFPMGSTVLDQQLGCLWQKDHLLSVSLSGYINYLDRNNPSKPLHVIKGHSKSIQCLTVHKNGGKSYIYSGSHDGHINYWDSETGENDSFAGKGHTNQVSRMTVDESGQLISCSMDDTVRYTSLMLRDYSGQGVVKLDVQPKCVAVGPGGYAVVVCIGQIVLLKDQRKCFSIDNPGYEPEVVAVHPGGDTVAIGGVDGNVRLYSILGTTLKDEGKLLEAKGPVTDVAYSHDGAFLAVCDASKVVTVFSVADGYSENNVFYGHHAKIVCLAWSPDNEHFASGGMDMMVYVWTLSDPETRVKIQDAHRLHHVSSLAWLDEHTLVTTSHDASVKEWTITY
Synaptosomal-associated protein 23 (Homo sapiens), sequence (O00161 whole entry): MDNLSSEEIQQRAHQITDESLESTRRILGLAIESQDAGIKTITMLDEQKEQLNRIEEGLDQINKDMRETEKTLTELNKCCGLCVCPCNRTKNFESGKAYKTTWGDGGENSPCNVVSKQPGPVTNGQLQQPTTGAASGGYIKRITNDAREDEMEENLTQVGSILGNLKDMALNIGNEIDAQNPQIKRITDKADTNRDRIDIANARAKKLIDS
Histone deacetylase 1 (Homo sapiens), sequence (Q13547 whole entry): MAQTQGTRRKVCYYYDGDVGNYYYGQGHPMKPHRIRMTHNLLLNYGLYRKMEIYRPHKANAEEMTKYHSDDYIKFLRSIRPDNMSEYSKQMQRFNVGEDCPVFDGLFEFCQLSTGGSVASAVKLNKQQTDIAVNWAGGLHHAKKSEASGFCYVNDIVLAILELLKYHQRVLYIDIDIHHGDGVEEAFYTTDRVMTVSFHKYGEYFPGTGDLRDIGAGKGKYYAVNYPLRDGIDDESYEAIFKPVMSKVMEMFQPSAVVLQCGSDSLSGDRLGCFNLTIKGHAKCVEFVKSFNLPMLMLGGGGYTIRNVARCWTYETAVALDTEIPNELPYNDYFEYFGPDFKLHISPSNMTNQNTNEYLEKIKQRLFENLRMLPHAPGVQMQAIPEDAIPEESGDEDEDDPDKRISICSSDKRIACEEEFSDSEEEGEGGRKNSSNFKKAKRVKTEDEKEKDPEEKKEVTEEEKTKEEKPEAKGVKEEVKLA
ATP synthase F(0) complex subunit g, mitochondrial (Homo sapiens), sequence (O75964 whole entry, one chain of several): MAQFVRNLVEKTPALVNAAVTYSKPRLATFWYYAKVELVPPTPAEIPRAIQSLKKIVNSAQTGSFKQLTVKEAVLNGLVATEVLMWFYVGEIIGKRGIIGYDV

**Q.** Which ED50 [1] does the source give for `Cc1ccc(C(=O)Nc2cccc(C(F)(F)F)c2)cc1Nc1nc(-c2cccnc2)nc2c1cnn2C` here?
**A.** 0.00555 µM

**Q.** What about the ED50 [2] of the same compound?
**A.** 882 nM

**Q.** What about the ED50 [3] of the same compound?
**A.** 85 nM

**Q.** And the ED50 [4]?
**A.** 5260 nM

**Q.** What about the ED50 [5] of the same compound?
**A.** 99 nM

**Q.** And the ED50 [6]?
**A.** 5.38 nM

**Q.** What about the ED50 [7] of the same compound?
**A.** 157 nM

**Q.** What about the ED50 [8] of the same compound?
**A.** 934 nM

**Q.** And the ED50 [9]?
**A.** 31.1 nM

**Q.** What about the ED50 [10] of the same compound?
**A.** 5.81 µM

**Q.** And the ED50 [11]?
**A.** 2880 nM

**Q.** And the ED50 [12]?
**A.** 3.34 µM

**Q.** And the ED50 [13]?
**A.** 40.9 nM

**Q.** What about the ED50 [14] of the same compound?
**A.** 9.57 nM

**Q.** And the ED50 [15]?
**A.** 2690 nM

**Q.** What about the ED50 [16] of the same compound?
**A.** 11.3 µM

**Q.** What about the ED50 [17] of the same compound?
**A.** 2640 nM

**Q.** And the ED50 [18]?
**A.** 32.5 µM

**Q.** And the ED50 [19]?
**A.** 6.16 nM

**Q.** And the ED50 [20]?
**A.** 4850 nM

**Q.** And the ED50 [21]?
**A.** 7.94 µM

**Q.** And the ED50 [22]?
**A.** 0.0636 µM

**Q.** What about the ED50 [23] of the same compound?
**A.** 753 nM

**Q.** And the ED50 [24]?
**A.** 8.91 nM

**Q.** What about the ED50 [25] of the same compound?
**A.** 22.5 nM

**Q.** And the ED50 [26]?
**A.** 1400 nM

**Q.** What about the ED50 [27] of the same compound?
**A.** 35.8 nM

**Q.** And the ED50 [28]?
**A.** 6.82 nM

**Q.** What about the ED50 [29] of the same compound?
**A.** 970 nM

**Q.** What about the ED50 [30] of the same compound?
**A.** 80.9 nM

**Q.** And the ED50 [31]?
**A.** 26 nM

**Q.** And the ED50 [32]?
**A.** 306 nM

**Q.** And the ED50 [33]?
**A.** 4.69 µM

**Q.** And the ED50 [34]?
**A.** 257 µM

**Q.** And the ED50 [35]?
**A.** 3.18 µM

**Q.** And the ED50 [36]?
**A.** 3600 nM

**Q.** And the ED50 [37]?
**A.** 1540 nM

**Q.** What about the ED50 [38] of the same compound?
**A.** 575 nM

**Q.** What about the ED50 [39] of the same compound?
**A.** 17.8 µM

**Q.** And the ED50 [40]?
**A.** 7.04 µM

**Q.** And the ED50 [41]?
**A.** 2900 nM

**Q.** What about the ED50 [42] of the same compound?
**A.** 16.4 nM

**Q.** What about the ED50 [43] of the same compound?
**A.** 0.596 µM

**Q.** What about the ED50 [44] of the same compound?
**A.** 11.6 µM

**Q.** What about the ED50 [45] of the same compound?
**A.** 0.00439 µM

**Q.** What about the ED50 [46] of the same compound?
**A.** 11.2 µM

**Q.** What about the ED50 [47] of the same compound?
**A.** 0.108 µM

**Q.** And the ED50 [48]?
**A.** 120 nM

**Q.** Which results are given for `Cc1ccc(C(=O)Nc2cccc(C(F)(F)F)c2)cc1Nc1nc(-c2cccnc2)nc2nn(C)cc12`?
**A.** ED50 [1]: 173 µM; ED50 [2]: 2310 nM; ED50 [3]: 57.9 nM; ED50 [4]: 48 nM; ED50 [5]: 835 nM; ED50 [6]: 182 nM; ED50 [7]: 7.82 nM; ED50 [8]: 1.29 nM; ED50 [9]: 2630 nM; ED50 [10]: 1.17 µM; ED50 [11]: 2120 nM; ED50 [12]: 3.21 µM; ED50 [13]: 1520 nM; ED50 [14]: 1.97 nM; ED50 [15]: 81.7 nM; ED50 [16]: 0.277 µM; ED50 [17]: 214 nM; ED50 [18]: 0.000313 µM; ED50 [19]: 49 nM; ED50 [20]: 466 nM; ED50 [21]: 0.05 µM; ED50 [22]: 233 µM; ED50 [23]: 1290 nM; ED50 [24]: 19.2 nM; ED50 [25]: 296 nM; ED50 [26]: 179 nM; ED50 [27]: 56.7 nM; ED50 [28]: 553 nM; ED50 [29]: 1300 nM; ED50 [30]: 18.8 nM; ED50 [31]: 37.3 nM; ED50 [32]: 1700 nM; ED50 [33]: 113 µM; ED50 [34]: 1.63 µM; ED50 [35]: 732 µM; ED50 [36]: 40.9 nM; ED50 [37]: 809 nM; ED50 [38]: 64.4 nM; ED50 [39]: 8.22 µM; ED50 [40]: 39.2 µM; ED50 [41]: 54.4 nM; ED50 [42]: 3430 nM; ED50 [43]: 7.07 µM; ED50 [44]: 1.33 µM; ED50 [45]: 10.5 µM; ED50 [46]: 0.416 µM; ED50 [47]: 35.5 µM; ED50 [48]: 2360 nM
